Reference: patent US20130059778A1, “Identification of a Genetic Risk Factor for Diabetes” (priority 2010, published 2013)

Legend:
[1] = tested on: islets isolated from ankB (+/+) and (+/−) mice; experiment: Insulin secretion assay, islets from ankB(+/+) and (+/−) mice; assay type: cell-based, mouse; settings: for potentiation of glucose-stimulated insulin release: Glp-1 100 nM
Procedure: Islets were isolated from ankB littermates and male Wistar rats by pancreatic perifusion as previously described (28). Islets were maintained in culture medium containing 11 mM glucose until the day of the assay. Insulin secretion was assayed in HEPES balanced salt solution (HBSS) (114 mM NaCl, 4.7 mM KCl, 1.2 mM KH2PO4, 1.16 mM MgSO4, 20 mM HEPES, 2.5 mM CaCl2, 25.5 mM NaHCO3, and 0.2% BSA, pH 7.2). Islets were pre-incubated HBSS containing 3 mM glucose for 2 hours. Insulin secretion was then measured by using static incubation for a 1 h period in HBSS containing 3 mM glucose. Islets were then transferred to HBSS containing 16.7 or 8 mM glucose for 1 hour, and then HBSS containing 16.7 or 8 mM glucose plus 0.1 mM carbachol or 100 nM Glp-1 for 1 hour. Following the incubations, islet samples were normalized for insulin content by extraction with 1 M acetic acid in 0.1% BSA. Static incubation samples and extract samples were analyzed for insulin concentrations via radioimmunoassay with the insulin Coat-a-Count kit (Diagnostic Products, Los Angeles). Values presented represent the mean values+/−SEM.

[2] = tested on: islets from ankB(+/+) and (+/−) mice; experiment: Intraislet calcium measurements using Fura-2; assay type: cell-based, mouse
Procedure: Islets from 8-10 month ankB(+/+) and (+/−) mice were isolated as described above and incubated overnight in medium containing 11 mM glucose. […] Islets were incubated 45 min at 37° C. Islets were then affixed to small open perifusion chamber (volume 150 μL) with a coverslip bottom using Puramatrix Peptide Hydrigel (BD Biosciences). Chamber was then mounted on a Zeiss Axiovert epifluorescence inverted microscope fitted with a Plan-Neofluar 16x/0.50 objective. The fluorescence (excitation at 355 or 380 nm) was recorded by a slow-scan charged-coupled device (CCD) camera (Andor Technology) and quantitated using AndorIQ software. All perifusions were performed at 37° C. using perfusion buffer containing either 3 mM glucose, 11 mM glucose, 30 mM KCl in 3 mM glucose, or 0.1 mM carbachol in 3 mM glucose. To assay carbachol effects in the absence of calcium, buffer containing 2 mM EGTA and 0 mM Ca^2+ was used. Data represent the mean+/−SEM of 3-7 individual islet recordings/animal using 6 animals/genotype. Significance was calculated using two-tailed T test.

[3] = tested on: wild type rat islets; experiment: Insulin secretion assay, rat islets treated with adenovirus (siRNA knockdown / rescue); assay type: cell-based; settings: adenoviral delivery to knockdown islets; p=0.03, n=6
Procedure: INS-1-derived cell line 823/3 was cultured as described previously (28). Small interfering RNA (siRNA) sequences corresponding to rat ankyrin-B siRNA1: GGCCAGAAGATCTCAAGGA (SEQ ID NO:2), siRNA2: GCTGTGTAGCATTTTAACA (SEQ ID NO:3), or a control siRNA which is siRNA 1 mutated at three base sites: GGCCCGAAGAGCTCAAGGA (SEQ ID NO:4), were cloned into vector EHOO6 and used for construction of Ad-ankB siRNA recombinant adenoviruses by the methods described (29). Complementary DNAs encoding human ankyrin-B or ankyrin-B W/W (7, 8) were used to prepare recombinant adenoviruses (AdCMV-h ankB and h ankB RAN) using the AdEasy system (Stratagene catalog number 240010). An adenovirus containing the green fluorescent protein (GFP) gene (AdCMV-_GFP) was used as a control. Purified viruses were incubated with INS-1 823/3 cells or islets at multiplicities of infection (MOI) of 20-50 for 18 h. Assays were undertaken 72 h later.
Islets were isolated from ankB littermates and male Wistar rats by pancreatic perifusion as previously described (28). […] Insulin secretion was then measured by using static incubation for a 1 h period in HBSS containing 3 mM glucose. […] Static incubation samples and extract samples were analyzed for insulin concentrations via radioimmunoassay with the insulin Coat-a-Count kit (Diagnostic Products, Los Angeles). […]

With C[N+](C)(C)CCOC(N)=O [carbachol] the “reduction in carbachol-stimulated insulin release” value ([1]; ankB(+/−) islets vs ankB(+/+), carbachol 0.1 mM, p=0.007, n=6) was 40%, the “potentiation of insulin release by carbachol” value ([1]; wild type islets, stimulatory glucose plus carbachol 0.1 mM) was 2.1 fold and the “reduction in Ca2+ release” value ([2]; ankB(+/−) islets, carbachol 0.1 mM in buffer containing 5 mM Ca2+) was 64%. The “reduction in intracellular Ca2+ release” value ([2]; ankB(+/−) vs ankB(+/+) islets, Ca2+-free buffer containing carbachol 0.1 mM) was ~79%.
For “full-length human ankyrin-B: full length 220 kD human ankyrin-B, siRNA-resistant, expressed from adenovirus”, the “rescue of impaired carbachol-mediated insulin release” value [3] was −40%.
For glucagon-like peptide 1 [Glp-1], the “potentiation of glucose-stimulated insulin release” value ([1]; ankB(+/−) islets, p=0.01, n=6) was 2.1 fold and the “potentiation of glucose-stimulated insulin release” value ([1]; wild type animals) was ~1.6 fold.
